# According to PubChem BioAssay (NCI):
#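 Dose response: 5 concentrations. Exposure: 48 h. Format: 96-well plates. Endpoint: linear interpolation; highest concentration if not reached. Definition used: TGI = concentration required for complete inhibition of growth.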
# How the values were obtained:
# Assay in all cases: inhibition of tumour cell growth, NCI panel, 48 h
# 786-0 renal = tested on: 786-0 renal
# A498 renal = tested on: A498 renal
# A549 NSCLC = tested on: A549 NSCLC
# ACHN renal = tested on: ACHN renal
# CCRF-CEM leukemia = tested on: CCRF-CEM leukemia
# COLO 205 colon = tested on: COLO 205 colon
# DLD-1 colon = tested on: DLD-1 colon
# DMS 114 small cell lung = tested on: DMS 114 small cell lung
# DMS 273 small cell lung = tested on: DMS 273 small cell lung
# EKVX NSCLC = tested on: EKVX NSCLC
# HCT-116 colon = tested on: HCT-116 colon
# HCT-15 colon = tested on: HCT-15 colon
# HL-60(TB) leukemia = tested on: HL-60(TB) leukemia
# HOP-18 NSCLC = tested on: HOP-18 NSCLC
# HOP-62 NSCLC = tested on: HOP-62 NSCLC
# HT29 colon = tested on: HT29 colon
# IGROV1 ovarian = tested on: IGROV1 ovarian
# K-562 leukemia = tested on: K-562 leukemia
# KM12 colon = tested on: KM12 colon
# LOX IMVI melanoma = tested on: LOX IMVI melanoma
# LXFL 529 NSCLC = tested on: LXFL 529 NSCLC
# M14 melanoma = tested on: M14 melanoma
# M19-MEL melanoma = tested on: M19-MEL melanoma
# MOLT-4 leukemia = tested on: MOLT-4 leukemia
# NCI-H226 lung = tested on: NCI-H226 lung
# NCI-H23 lung = tested on: NCI-H23 lung
# NCI-H460 lung = tested on: NCI-H460 lung
# NCI-H522 lung = tested on: NCI-H522 lung
# OVCAR-4 ovarian = tested on: OVCAR-4 ovarian
# OVCAR-8 ovarian = tested on: OVCAR-8 ovarian
# RPMI-8226 leukemia = tested on: RPMI-8226 leukemia
# RXF 393 renal = tested on: RXF 393 renal
# SF-268 CNS = tested on: SF-268 CNS
# SF-295 CNS = tested on: SF-295 CNS
# SF-539 CNS = tested on: SF-539 CNS
# SK-MEL-28 melanoma = tested on: SK-MEL-28 melanoma
# SK-MEL-5 melanoma = tested on: SK-MEL-5 melanoma
# SN12C renal = tested on: SN12C renal
# SNB-19 CNS = tested on: SNB-19 CNS
# SNB-75 CNS = tested on: SNB-75 CNS
# SNB-78 CNS = tested on: SNB-78 CNS
# SR leukemia = tested on: SR leukemia
# SW-620 colon = tested on: SW-620 colon
# U251 CNS = tested on: U251 CNS
# UACC-257 melanoma = tested on: UACC-257 melanoma
# UACC-62 melanoma = tested on: UACC-62 melanoma
# CAKI-1 renal = tested on: CAKI-1 renal
# HCC-2998 colon = tested on: HCC-2998 colon
# KM20L2 colon = tested on: KM20L2 colon
# MALME-3M melanoma = tested on: MALME-3M melanoma
# OVCAR-3 ovarian = tested on: OVCAR-3 ovarian
# OVCAR-5 ovarian = tested on: OVCAR-5 ovarian
# SK-OV-3 ovarian = tested on: SK-OV-3 ovarian
# TK-10 renal = tested on: TK-10 renal
# UO-31 renal = tested on: UO-31 renal
# XF 498 CNS = tested on: XF 498 CNS
# HOP-92 NSCLC = tested on: HOP-92 NSCLC
# SK-MEL-2 melanoma = tested on: SK-MEL-2 melanoma
compound,measurement,setting,value
CC1(C)S[C@H](c2ccccc2C(=O)O)N[C@@H]1CC(=O)O,TGI,786-0 renal,> 100 µM
same,TGI,A498 renal,> 100 µM
same,TGI,A549 NSCLC,> 100 µM
same,TGI,ACHN renal,> 100 µM
same,TGI,CCRF-CEM leukemia,> 100 µM
same,TGI,COLO 205 colon,> 100 µM
same,TGI,DLD-1 colon,> 100 µM
same,TGI,DMS 114 small cell lung,> 100 µM
same,TGI,DMS 273 small cell lung,> 100 µM
same,TGI,EKVX NSCLC,> 100 µM
same,TGI,HCT-116 colon,> 100 µM
same,TGI,HCT-15 colon,> 100 µM
same,TGI,HL-60(TB) leukemia,> 100 µM
same,TGI,HOP-18 NSCLC,> 100 µM
same,TGI,HOP-62 NSCLC,> 100 µM
same,TGI,HT29 colon,> 100 µM
same,TGI,IGROV1 ovarian,> 100 µM
same,TGI,K-562 leukemia,> 100 µM
same,TGI,KM12 colon,> 100 µM
same,TGI,LOX IMVI melanoma,> 100 µM
same,TGI,LXFL 529 NSCLC,> 100 µM
same,TGI,M14 melanoma,> 100 µM
same,TGI,M19-MEL melanoma,> 100 µM
same,TGI,MOLT-4 leukemia,> 100 µM
same,TGI,NCI-H226 lung,> 100 µM
same,TGI,NCI-H23 lung,> 100 µM
same,TGI,NCI-H460 lung,> 100 µM
same,TGI,NCI-H522 lung,> 100 µM
same,TGI,OVCAR-4 ovarian,> 100 µM
same,TGI,OVCAR-8 ovarian,> 100 µM
same,TGI,RPMI-8226 leukemia,> 100 µM
same,TGI,RXF 393 renal,> 100 µM
same,TGI,SF-268 CNS,> 100 µM
same,TGI,SF-295 CNS,> 100 µM
same,TGI,SF-539 CNS,> 100 µM
same,TGI,SK-MEL-28 melanoma,> 100 µM
same,TGI,SK-MEL-5 melanoma,> 100 µM
same,TGI,SN12C renal,> 100 µM
same,TGI,SNB-19 CNS,> 100 µM
same,TGI,SNB-75 CNS,> 100 µM
same,TGI,SNB-78 CNS,> 100 µM
same,TGI,SR leukemia,> 100 µM
same,TGI,SW-620 colon,> 100 µM
same,TGI,U251 CNS,> 100 µM
same,TGI,UACC-257 melanoma,> 100 µM
same,TGI,UACC-62 melanoma,> 100 µM
Cn1cc/c(=N\N=c2/ccn(C)c3ccccc23)c2ccccc21,TGI,786-0 renal,30.1 µM
same,TGI,A498 renal,37.2 µM
same,TGI,A549 NSCLC,30.6 µM
same,TGI,ACHN renal,27 µM
same,TGI,CAKI-1 renal,33.2 µM
same,TGI,CCRF-CEM leukemia,24.5 µM
same,TGI,COLO 205 colon,22.1 µM
same,TGI,DLD-1 colon,29.4 µM
same,TGI,DMS 114 small cell lung,27.7 µM
same,TGI,DMS 273 small cell lung,30 µM
same,TGI,EKVX NSCLC,27.8 µM
same,TGI,HCC-2998 colon,29.2 µM
same,TGI,HCT-116 colon,23.4 µM
same,TGI,HCT-15 colon,29.2 µM
same,TGI,HL-60(TB) leukemia,21.6 µM
same,TGI,HOP-62 NSCLC,31.6 µM
same,TGI,HT29 colon,31.7 µM
same,TGI,K-562 leukemia,22.2 µM
same,TGI,KM12 colon,25.6 µM
same,TGI,KM20L2 colon,28.2 µM
same,TGI,LOX IMVI melanoma,24.2 µM
same,TGI,LXFL 529 NSCLC,27.2 µM
same,TGI,M14 melanoma,30.8 µM
same,TGI,M19-MEL melanoma,34.2 µM
same,TGI,MALME-3M melanoma,31 µM
same,TGI,MOLT-4 leukemia,63.9 µM
same,TGI,NCI-H226 lung,25.8 µM
same,TGI,NCI-H23 lung,27.4 µM
same,TGI,NCI-H460 lung,25 µM
same,TGI,NCI-H522 lung,27.8 µM
same,TGI,OVCAR-3 ovarian,24 µM
same,TGI,OVCAR-4 ovarian,25.5 µM
same,TGI,OVCAR-5 ovarian,30.3 µM
same,TGI,OVCAR-8 ovarian,28.5 µM
same,TGI,RXF 393 renal,27.5 µM
same,TGI,SF-268 CNS,39.2 µM
same,TGI,SF-295 CNS,30.9 µM
same,TGI,SF-539 CNS,29.4 µM
same,TGI,SK-MEL-28 melanoma,28.5 µM
same,TGI,SK-MEL-5 melanoma,29.4 µM
same,TGI,SK-OV-3 ovarian,31 µM
same,TGI,SN12C renal,33 µM
same,TGI,SNB-19 CNS,36.3 µM
same,TGI,SNB-75 CNS,61.8 µM
same,TGI,SNB-78 CNS,33.3 µM
same,TGI,SR leukemia,47.3 µM
same,TGI,TK-10 renal,36.4 µM
same,TGI,U251 CNS,29.1 µM
same,TGI,UACC-257 melanoma,27.3 µM
same,TGI,UACC-62 melanoma,29.8 µM
same,TGI,UO-31 renal,26.3 µM
same,TGI,XF 498 CNS,27.1 µM
COC1CC(Br)(C#N)C1 (stereo unspecified),TGI,786-0 renal,> 100 µM
same,TGI,A549 NSCLC,> 100 µM
same,TGI,CAKI-1 renal,> 100 µM
same,TGI,COLO 205 colon,> 100 µM
same,TGI,DLD-1 colon,> 100 µM
same,TGI,DMS 114 small cell lung,> 100 µM
same,TGI,EKVX NSCLC,> 100 µM
same,TGI,HCC-2998 colon,> 100 µM
same,TGI,HCT-116 colon,> 100 µM
same,TGI,HCT-15 colon,> 100 µM
same,TGI,HL-60(TB) leukemia,> 100 µM
same,TGI,HOP-18 NSCLC,> 100 µM
same,TGI,HOP-62 NSCLC,> 100 µM
same,TGI,HOP-92 NSCLC,> 100 µM
same,TGI,HT29 colon,> 100 µM
same,TGI,IGROV1 ovarian,> 100 µM
same,TGI,K-562 leukemia,> 100 µM
same,TGI,KM12 colon,> 100 µM
same,TGI,KM20L2 colon,> 100 µM
same,TGI,M14 melanoma,> 100 µM
same,TGI,M19-MEL melanoma,> 100 µM
same,TGI,MALME-3M melanoma,> 100 µM
same,TGI,MOLT-4 leukemia,> 100 µM
same,TGI,NCI-H23 lung,> 100 µM
same,TGI,OVCAR-3 ovarian,> 100 µM
same,TGI,OVCAR-4 ovarian,> 100 µM
same,TGI,OVCAR-5 ovarian,> 100 µM
same,TGI,OVCAR-8 ovarian,> 100 µM
same,TGI,RPMI-8226 leukemia,> 100 µM
same,TGI,RXF 393 renal,> 100 µM
same,TGI,SF-268 CNS,> 100 µM
same,TGI,SF-295 CNS,> 100 µM
same,TGI,SF-539 CNS,> 100 µM
same,TGI,SK-MEL-2 melanoma,> 100 µM
same,TGI,SK-MEL-28 melanoma,> 100 µM
same,TGI,SK-MEL-5 melanoma,> 100 µM
same,TGI,SK-OV-3 ovarian,> 100 µM
same,TGI,SNB-78 CNS,> 100 µM
same,TGI,SR leukemia,> 100 µM
same,TGI,TK-10 renal,> 100 µM
same,TGI,U251 CNS,> 100 µM
same,TGI,UACC-62 melanoma,> 100 µM
same,TGI,UO-31 renal,> 100 µM
